pIC50: −log10 of the molar value. Starred links: 1 amine or outer side, 2 acyl side, 3 side chain; linkers in the order of their positions; H or OH if unused. Positions of bridges follow the written chain, without caps; N, C: chain ends. Non-standard residues stand in square brackets, D forms with d. Residues, ends and D or L forms follow the SMILES beside them. *: point of attachment. Bip(4'-(3-HOOC-benzamido)) = N[C@@H](Cc1ccc(-c2ccc(NC(=O)c3cccc(C(=O)O)c3)cc2)cc1)C(=O)O; X9 = Cn1nc(C(=O)Nc2cccc(-c3ccc(C[C@H](N[*:1])C(=O)[*:2])cc3)c2)c2cccnc21; dArg(ω-(2S)-2,3-diOHpropyl) = N=C(NCCC[C@@H](N)C(=O)O)NC[C@H](O)CO; Bip(4'-NH) = O=C([C@H](Cc1ccc(-c2ccc(N[*:3])cc2)cc1)N[*:1])[*:2]; Indazole3carbonyl(1-CH2COOH) = O=C(O)Cn1nc(C(=O)*)c2ccccc21; X54 = N=C(NCCC[C@@H](N[*:1])C(=O)[*:2])NCc1cccc(-n2ccnc2)c1; Bip(4'-COOH) = N[C@@H](Cc1ccc(-c2ccc(C(=O)O)cc2)cc1)C(=O)O; Bip(4'-NHAc) = CC(=O)Nc1ccc(-c2ccc(C[C@H](N)C(=O)O)cc2)cc1; Phe(3-CH2NH2) = O=C([C@H](Cc1cccc(CN[*:3])c1)N[*:1])[*:2]; X11 = CC(=O)N[C@@H](Cc1cn(CC(=O)O)c2ccccc12)C(=O)*; Ala(imidazol-2-yl) = N[C@@H](Cc1ncc[nH]1)C(=O)O; dArg(ω-Bn) = N=C(NCCC[C@@H](N)C(=O)O)NCc1ccccc1; Ala(morpholin-4-yl) = N[C@@H](CN1CCOCC1)C(=O)O; Phe(3-CONH2) = NC(=O)c1cccc(C[C@H](N)C(=O)O)c1; Bip = N[C@@H](Cc1ccc(-c2ccccc2)cc1)C(=O)O; X61 = O=C(c1ccc2c(c1)Cc1ccccc1-2)*; 2Pal = N[C@@H](Cc1ccccn1)C(=O)O; 2Thi = N[C@@H](Cc1cccs1)C(=O)O; Cha = N[C@@H](CC1CCCCC1)C(=O)O; Tle = CC(C)(C)[C@H](N)C(=O)O; Aze = O=C(O)[C@@H]1CCN1; Sar = CNCC(=O)O
target: TNFα (Homo sapiens, UniProt P01375); experiment: TNF-Induced HEK-Blue Assay; format: cell-based; details: not given
Sequence (P01375 77-233 limits assumed): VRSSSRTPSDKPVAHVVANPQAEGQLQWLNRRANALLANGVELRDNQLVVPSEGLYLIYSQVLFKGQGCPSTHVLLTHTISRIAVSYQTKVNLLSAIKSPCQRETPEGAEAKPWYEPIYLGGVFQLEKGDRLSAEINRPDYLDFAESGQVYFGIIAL

| SMILES | pIC50 |
| --- | --- |
| CC(C)C[C@@H]1NC(=O)[C@H](Cc2cccc(C(N)=O)c2)NC(=O)[C@H](C(C)C)NC(=O)[C@@H]2CCCN2C(=O)[C@H](C(C)C)NC(=O)[C@@H](CCCNC(=N)NCc2ccccc2)NC(=O)[C@H](CC(=O)O)NC(=O)[C@H](Cc2ccc(O)cc2)NC(=O)CN(C)C(=O)[C@H](Cc2ccc(-c3ccc(NC(=O)c4nn(CC(=O)O)c5ccccc45)cc3)cc2)NC(=O)[C@H](Cc2ccc(-c3ccccc3)cc2)NC(=O)[C@H](CN2CCOCC2)NC(=O)CSC[C@@H](C(=O)NCC(N)=O)NC1=O [Example 600] ({CH2CO}-[Ala(morpholin-4-yl)][Bip][Bip(4'-NH)](Indazole3carbonyl(1-CH2COOH))[Sar]YD[dArg(ω-Bn)]VPV[Phe(3-CONH2)]LCG-NH2; thioether N-13) | > 7.30 |
| CC(C)C[C@@H]1NC(=O)[C@H](Cc2cccc(C(N)=O)c2)NC(=O)[C@H](C(C)C)NC(=O)[C@@H]2CCCN2C(=O)[C@H](C(C)C)NC(=O)[C@@H](CCCNC(=N)NC[C@H](O)CO)NC(=O)[C@H](CC(=O)O)NC(=O)[C@H](Cc2ccc(O)cc2)NC(=O)CN(C)C(=O)[C@H](Cc2ccc(-c3ccc(NC(=O)c4nn(CC(=O)O)c5ccccc45)cc3)cc2)NC(=O)[C@H](Cc2ccc(-c3ccccc3)cc2)NC(=O)[C@H](CN2CCOCC2)NC(=O)CSC[C@@H](C(=O)NCC(N)=O)NC1=O [Example 546] ({CH2CO}-[Ala(morpholin-4-yl)][Bip][Bip(4'-NH)](Indazole3carbonyl(1-CH2COOH))[Sar]YD[dArg(ω-(2S)-2,3-diOHpropyl)]VPV[Phe(3-CONH2)]LCG-NH2; thioether N-13) | > 7.30 |
| CC(C)C[C@@H]1NC(=O)[C@H](CCCNC(=N)N)NC(=O)[C@H](C(C)C)NC(=O)[C@@H]2CCCN2C(=O)[C@H](C(C)C)NC(=O)[C@@H](CCCNC(=N)NCc2cccc(-n3ccnc3)c2)NC(=O)[C@H](CC(=O)O)NC(=O)[C@@H]2CCCN2C(=O)CN(C)C(=O)[C@H](Cc2ccc(-c3ccc(NC(=O)c4nn(CC(=O)O)c5ccccc45)cc3)cc2)NC(=O)[C@H](Cc2ccc(-c3ccccc3)cc2)NC(=O)[C@H](CN2CCOCC2)NC(=O)CSC[C@@H](C(=O)NCC(N)=O)NC1=O [Example 470] ({CH2CO}-[Ala(morpholin-4-yl)][Bip][Bip(4'-NH)](Indazole3carbonyl(1-CH2COOH))[Sar]PD[X54]VPVRLCG-NH2; thioether N-13) | > 7.30 |

same assay, conditions: HEK-Blue-CD40L cells, NF-kB-driven secreted alkaline phosphatase reporter; TNFα 0.5 ng/ml; 18 h; read-out: TNF induced HEK-Blue assay IC50 value

| SMILES | pIC50 |
| --- | --- |
| CC[C@H](C)[C@@H]1NC(=O)[C@@H]2CCCN2C(=O)[C@H]([C@@H](C)CC)NC(=O)[C@@H](CCCNC(=N)N)NC(=O)[C@H](CC(=O)O)NC(=O)[C@H](Cc2ccccc2)NC(=O)CN(C)C(=O)[C@H](Cc2ccc(-c3ccc(NC(=O)c4cccc(C(=O)O)c4)cc3)cc2)NC(=O)[C@H](Cc2ccc(-c3ccc(C(=O)O)cc3)cc2)NC(=O)[C@H](C(C)(C)C)NC(=O)CSC[C@@H](C(=O)NCC(N)=O)NC(=O)[C@H](CC(C)C)NC(=O)[C@H](Cc2cnc[nH]2)NC1=O [Example 351] ({CH2CO}-[Tle][Bip(4'-COOH)][Bip(4'-(3-HOOC-benzamido))][Sar]FD[dR]IPIHLCG-NH2; thioether N-13) | > 7.30 |
| CC[C@H](C)[C@@H]1NC(=O)[C@@H]2CCCN2C(=O)[C@H]([C@@H](C)CC)NC(=O)[C@@H](CCCNC(=N)N)NC(=O)[C@H](CC(=O)O)NC(=O)[C@H](Cc2ccccc2)NC(=O)CN(C)C(=O)[C@H](Cc2ccc(-c3ccc(NC(=O)[C@H](Cc4cn(CC(=O)O)c5ccccc45)NC(C)=O)cc3)cc2)NC(=O)[C@H](Cc2ccc(-c3ccc(C(=O)O)cc3)cc2)NC(=O)[C@H](C(C)(C)C)NC(=O)CSC[C@@H](C(=O)NCC(N)=O)NC(=O)[C@H](CC(C)C)NC(=O)[C@H](Cc2ncc[nH]2)NC1=O [Example 416] ({CH2CO}-[Tle][Bip(4'-COOH)][Bip(4'-NH)](X11)[Sar]FD[dR]IPI[Ala(imidazol-2-yl)]LCG-NH2; thioether N-13) | 6.70 to 7.30 |
| CC(=O)Nc1ccc(-c2ccc(C[C@@H]3NC(=O)[C@H](Cc4ccc(-c5ccc(C(=O)O)cc5)cc4)NC(=O)[C@H](CC4CCCCC4)NC(=O)CSC[C@@H](C(=O)NCC(N)=O)NC(=O)[C@H](CC(C)C)NC(=O)[C@H](Cc4cnc[nH]4)NC(=O)[C@H](C(C)C)NC(=O)[C@@H]4CCCN4C(=O)[C@H](C(C)C)NC(=O)[C@@H](CCCNC(=N)N)NC(=O)[C@H](CC(=O)O)NC(=O)[C@H](Cc4cnc[nH]4)NC(=O)CN(C)C3=O)cc2)cc1 [Example 234] ({CH2CO}-[Cha][Bip(4'-COOH)][Bip(4'-NHAc)][Sar]HD[dR]VPVHLCG-NH2; thioether N-13) | > 7.30 |
| CC(=O)Nc1ccc(-c2ccc(C[C@@H]3NC(=O)[C@H](Cc4ccc(-c5ccc(C(=O)O)cc5)cc4)NC(=O)[C@H](CN4CCOCC4)NC(=O)CSC[C@@H](C(=O)NCC(N)=O)NC(=O)[C@H](CC(C)C)NC(=O)[C@H](CCCNC(=N)N)NC(=O)[C@H](C(C)C)NC(=O)[C@@H]4CCCN4C(=O)[C@H](CC(N)=O)NC(=O)[C@@H](CCCNC(=N)N)NC(=O)[C@H](CC(=O)O)NC(=O)[C@H](Cc4ccccn4)NC(=O)CN(C)C3=O)cc2)cc1 [Example 226] ({CH2CO}-[Ala(morpholin-4-yl)][Bip(4'-COOH)][Bip(4'-NHAc)][Sar][2Pal]D[dR]NPVRLCG-NH2; thioether N-13) | 6.70 to 7.30 |
| CC(=O)Nc1ccc(-c2ccc(C[C@@H]3NC(=O)[C@H](Cc4ccc(-c5ccc(C(=O)O)cc5)cc4)NC(=O)[C@H](CN4CCOCC4)NC(=O)CSC[C@@H](C(=O)NCC(N)=O)NC(=O)[C@H](CC(C)C)NC(=O)[C@H](Cc4cccc(CN)c4)NC(=O)[C@H](C(C)C)NC(=O)[C@@H]4CCN4C(=O)[C@H](C(C)C)NC(=O)[C@@H](CCCNC(=N)N)NC(=O)[C@H](CC(=O)O)NC(=O)[C@H](Cc4ccccn4)NC(=O)CN(C)C3=O)cc2)cc1 [Example 181] ({CH2CO}-[Ala(morpholin-4-yl)][Bip(4'-COOH)][Bip(4'-NHAc)][Sar][2Pal]D[dR]V[Aze]V[Phe(3-CH2NH2)]LCG-NH2; thioether N-13) | > 7.30 |
| CC[C@H](C)[C@@H]1NC(=O)[C@@H]2CCCN2C(=O)[C@H]([C@@H](C)CC)NC(=O)[C@@H](CCCNC(=N)N)NC(=O)[C@H](CC(=O)O)NC(=O)[C@H](Cc2ccccc2)NC(=O)CN(C)C(=O)[C@H](Cc2ccc(-c3ccc(NC(=O)c4ccc5c(c4)Cc4ccccc4-5)cc3)cc2)NC(=O)[C@H](Cc2ccc(-c3ccc(C(=O)O)cc3)cc2)NC(=O)[C@H](C(C)(C)C)NC(=O)CSC[C@@H](C(=O)NCC(N)=O)NC(=O)[C@H](CC(C)C)NC(=O)[C@H](Cc2cnc[nH]2)NC1=O [Example 418] ({CH2CO}-[Tle][Bip(4'-COOH)][Bip(4'-NH)](X61)[Sar]FD[dR]IPIHLCG-NH2; thioether N-13) | 6.70 to 7.30 |
| CC(C)C[C@@H]1NC(=O)[C@H](Cc2ccc(O)cc2)NC(=O)[C@H](C(C)C)NC(=O)[C@@H]2CCCN2C(=O)[C@H](C(C)C)NC(=O)[C@@H](CCCNC(=N)N)NC(=O)[C@H](CC(=O)O)NC(=O)[C@H](Cc2ccc(O)cc2)NC(=O)CN(C)C(=O)[C@H](Cc2ccc(-c3ccccc3)cc2)NC(=O)[C@H](Cc2ccc(-c3ccc(C(=O)O)cc3)cc2)NC(=O)[C@H](Cc2c[nH]c3ccccc23)NC(=O)CSC[C@@H](C(=O)NCC(N)=O)NC1=O [Example 189] ({CH2CO}-W[Bip(4'-COOH)][Bip][Sar]YD[dR]VPVYLCG-NH2; thioether N-13) | 5.70 to 6.70 |

Second part, the compound after the results:

| pIC50 | SMILES |
| --- | --- |
| > 7.30 | CC(C)C[C@@H]1NC(=O)[C@H](Cc2ccc(O)cc2)NC(=O)[C@H](C(C)C)NC(=O)[C@@H]2CCN2C(=O)[C@H](C(C)C)NC(=O)[C@@H](CCCNC(=N)N)NC(=O)[C@H](CC(=O)O)NC(=O)[C@H](Cc2ccc(O)cc2)NC(=O)CN(C)C(=O)[C@H](Cc2ccc(-c3ccccc3)cc2)NC(=O)[C@H](Cc2ccc(-c3ccccc3)cc2)NC(=O)[C@H](CN2CCOCC2)NC(=O)CSC[C@@H](C(=O)NCC(N)=O)NC1=O [Example 79] ({CH2CO}-[Ala(morpholin-4-yl)][Bip][Bip][Sar]YD[dR]V[Aze]VYLCG-NH2; thioether N-13) |
| > 7.30 | CC(C)C[C@@H]1NC(=O)[C@H](CCCNC(=N)N)NC(=O)[C@H](C(C)C)NC(=O)[C@@H]2CCCN2C(=O)[C@H](C(C)C)NC(=O)[C@@H](CCCNC(=N)N)NC(=O)[C@H](CC(=O)O)NC(=O)[C@@H]2CCCN2C(=O)CN(C)C(=O)[C@H](Cc2ccc(-c3cccc(NC(=O)c4nn(C)c5ncccc45)c3)cc2)NC(=O)[C@H](Cc2ccc(-c3ccccc3)cc2)NC(=O)[C@H](CN2CCOCC2)NC(=O)CSC[C@@H](C(=O)NCC(N)=O)NC1=O [Example 345] ({CH2CO}-[Ala(morpholin-4-yl)][Bip][X9][Sar]PD[dR]VPVRLCG-NH2; thioether N-13) |
| 5.70 to 6.70 | CC(C)C[C@@H]1NC(=O)[C@H](CCCNC(=N)N)NC(=O)[C@H](C(C)C)NC(=O)[C@@H]2CCN2C(=O)[C@H](C(C)C)NC(=O)[C@H](CCCNC(=N)N)NC(=O)[C@H](CC(=O)O)NC(=O)[C@@H]2CCCN2C(=O)CN(C)C(=O)[C@H](Cc2ccc(-c3ccccc3)cc2)NC(=O)[C@H](Cc2ccc(-c3ccccc3)cc2)NC(=O)[C@H](Cc2ccccc2)NC(=O)CSC[C@@H](C(=O)NCC(N)=O)NC1=O [Example 42] ({CH2CO}-F[Bip][Bip][Sar]PDRV[Aze]VRLCG-NH2; thioether N-13) |
| 5.70 to 6.70 | CC(C)C[C@@H]1NC(=O)[C@H](CCCNC(=N)N)NC(=O)[C@H](C(C)C)NC(=O)CN(C)C(=O)[C@H](C(C)C)NC(=O)[C@H](CCCNC(=N)N)NC(=O)[C@H](CC(=O)O)NC(=O)[C@@H]2CCCN2C(=O)CN(C)C(=O)[C@H](Cc2ccc(-c3ccccc3)cc2)NC(=O)[C@H](Cc2ccc(-c3ccccc3)cc2)NC(=O)[C@H](Cc2ccccc2)NC(=O)CSC[C@@H](C(=O)NCC(N)=O)NC1=O [Example 16] ({CH2CO}-F[Bip][Bip][Sar]PDRV[Sar]VRLCG-NH2; thioether N-13) |
| 5.70 to 6.70 | CC(=O)Nc1ccc(-c2ccc(C[C@@H]3NC(=O)[C@H](Cc4ccc(-c5ccccc5)cc4)NC(=O)[C@H](CC4CCCCC4)NC(=O)CSC[C@@H](C(=O)NCC(N)=O)NC(=O)[C@H](CC(C)C)NC(=O)[C@H](Cc4cccs4)NC(=O)[C@H](C(C)C)NC(=O)[C@@H]4CCCN4C(=O)[C@H](C(C)C)NC(=O)[C@@H](CCCNC(=N)N)NC(=O)[C@H](CC(=O)O)NC(=O)[C@H](Cc4ccccn4)NC(=O)CN(C)C3=O)cc2)cc1 [Example 235] ({CH2CO}-[Cha][Bip][Bip(4'-NHAc)][Sar][2Pal]D[dR]VPV[2Thi]LCG-NH2; thioether N-13) |

Reference: patent US20250145665A1, “MACROCYCLIC PEPTIDES USEFUL AS MODULATORS OF TNF ALPHA” (Bristol-Myers Squibb Company, priority 2023, published 2025)
